Results reported in ChEMBL document CHEMBL1201862, “PubChem BioAssay data set” (2004).
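Growth conditions: 96-well plates. Treatment: test compound, 48 hours, 5 concentrations. Analysis: linear interpolation between bracketing concentrations; unreached endpoints set to highest concentration. Here, GI50 denotes the concentration required for 50% inhibition of growth.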 Calls of active or inactive are those of the source. Cut-off read from the data, not from the text of the source: active = GI50 up to about 1.1 µM and inactive = higher.

Legend:
Assay in all cases: NCI-60 cell line screen, 48 h
SNB-19 = system: SNB-19
SK-OV-3 = system: SK-OV-3
A549 = system: A549
OVCAR-3 = system: OVCAR-3
HOP-62 = system: HOP-62
SK-MEL-2 = system: SK-MEL-2
SN12C = system: SN12C
IGROV-1 = system: IGROV-1
SK-MEL-5 = system: SK-MEL-5
HCT-15 = system: HCT-15
MOLT-4 = system: MOLT-4
Hs-578T = system: Hs-578T
MCF7 = system: MCF7
OVCAR-4 = system: OVCAR-4
M14 = system: M14
HL-60 = system: HL-60
SNB-75 = system: SNB-75
SW-620 = system: SW-620
UACC-62 = system: UACC-62
NCI-H226 = system: NCI-H226

Row | SMILES | GI50 (SNB-19) | GI50 (SK-OV-3) | GI50 (A549) | GI50 (OVCAR-3) | GI50 (HOP-62) | GI50 (SK-MEL-2) | GI50 (SN12C) | GI50 (IGROV-1) | GI50 (SK-MEL-5) | GI50 (HCT-15) | GI50 (MOLT-4) | GI50 (Hs-578T) | GI50 (MCF7) | GI50 (OVCAR-4) | GI50 (M14) | GI50 (HL-60) | GI50 (SNB-75) | GI50 (SW-620) | GI50 (UACC-62) | GI50 (NCI-H226)
1 | OC1(c2ccc(Cl)cc2)c2c(c3ccccc3c3ccccc23)C2=NCCN21 (centres undefined) | 13.6 µM (inactive) | 16.4 µM (inactive) | 9.14 µM (inactive) | 23.8 µM (inactive) | 11.3 µM (inactive) | 18.7 µM (inactive) | 16.3 µM (inactive) | 3.96 µM (inactive) | 29 µM (inactive) | 24.3 µM | 10.8 µM (inactive) | 4.58 µM (inactive) | 14.6 µM (inactive) | 3.43 µM (inactive) | 11.4 µM (inactive) | > 100 µM (inactive) | 2.91 µM (inactive) | 12.6 µM (inactive) | 15.9 µM (inactive) | 
2 | N=C(Nc1nc(-c2ccccn2)cc2ccccc12)c1ccccn1 | 0.834 µM (active) | 0.0308 µM (active) | 0.0733 µM (active) | 0.01 µM (active) | 0.0789 µM (active) |  | 0.0252 µM (active) | 0.0322 µM (active) | 0.0817 µM (active) | 0.0149 µM | 0.01 µM (active) | 1.61 µM (inactive) | 0.0106 µM (active) | < 0.0561 µM (active) | 0.0229 µM (active) | 0.01 µM (active) | 0.361 µM (active) | 0.0182 µM (active) | 0.0336 µM (active) | 0.106 µM (active)
3 | O=c1[nH]cnc2c1sc1nc3ccccc3n12 | > 100 µM (inactive) | 58.1 µM (inactive) | > 100 µM (inactive) | > 100 µM (inactive) | > 100 µM (inactive) | 55.8 µM (inactive) |  | 63.8 µM (inactive) | > 100 µM (inactive) | 80.9 µM | 90.6 µM (inactive) | 51.6 µM (inactive) | 76.4 µM (inactive) | > 100 µM (inactive) | > 100 µM (inactive) |  | 49.3 µM (inactive) | > 100 µM (inactive) | 30.5 µM (inactive) | > 100 µM (inactive)
4 | COc1cc([C@@H]2c3cc4c(cc3[C@@H](c3c(O)cc(O)c5c3O[C@H](c3ccc(O)c(O)c3)[C@H](OC(=O)c3cc(O)c(O)c(O)c3)C5)[C@H]3COC(=O)[C@H]23)OCO4)cc(OC)c1O | 30.1 µM (inactive) | 44.1 µM (inactive) | 29.4 µM (inactive) | 28.2 µM (inactive) | 51.8 µM (inactive) | 57.9 µM (inactive) | 22.3 µM (inactive) | 57.7 µM (inactive) | 25.8 µM (inactive) | 40.8 µM | 33.7 µM (inactive) | 96.4 µM (inactive) | 42 µM (inactive) | > 100 µM (inactive) | 23.4 µM (inactive) | 19.5 µM (inactive) |  | 44.4 µM (inactive) | 98.9 µM (inactive) | 
5 | Cc1c2c(n(CCc3ccc(Cl)cc3)c1C)NN=C(C#N)S2(=O)=O | > 100 µM (inactive) | > 100 µM (inactive) | > 100 µM (inactive) | > 100 µM (inactive) | > 100 µM (inactive) | > 100 µM (inactive) | > 100 µM (inactive) | > 100 µM (inactive) | > 100 µM (inactive) | > 100 µM | 69.3 µM (inactive) | > 100 µM (inactive) | > 100 µM (inactive) | > 100 µM (inactive) | 91.4 µM (inactive) |  | > 100 µM (inactive) | > 100 µM (inactive) | > 100 µM (inactive) | > 100 µM (inactive)
6 | CCOC(=O)C1CCCCN1CCc1c[nH]c2ccccc12 (centres undefined) | > 100 µM (inactive) | > 100 µM (inactive) | 74.6 µM (inactive) | > 100 µM (inactive) | > 100 µM (inactive) | > 100 µM (inactive) | > 100 µM (inactive) | > 100 µM (inactive) | 80.9 µM (inactive) | 93.1 µM | 25.1 µM (inactive) | > 100 µM (inactive) | > 100 µM (inactive) | 73.5 µM (inactive) | > 100 µM (inactive) |  | > 100 µM (inactive) | > 100 µM (inactive) | > 100 µM (inactive) | 71.6 µM (inactive)
7 | CCN(CC)Cc1ccc(C(=S)Nc2ccc(Cl)cc2)s1 | 16.5 µM (inactive) | 15.2 µM (inactive) | 11.2 µM (inactive) | 15.3 µM (inactive) | 16.3 µM (inactive) | 15.1 µM (inactive) |  | 11.4 µM (inactive) | 4.24 µM (inactive) | 10.7 µM | 4.54 µM (inactive) | 10.4 µM (inactive) | 11 µM (inactive) | 10 µM (inactive) | 3.64 µM (inactive) | 2.75 µM (inactive) |  | 12.2 µM (inactive) | 9.57 µM (inactive) | 
8 | S=C(N/N=C/c1ccccn1)N1CC2CCC(CC2)C1 | 0.161 µM (active) | < 0.01 µM (active) | < 0.01 µM (active) | < 0.01 µM (active) | < 0.01 µM (active) | < 0.0471 µM (active) | < 0.0216 µM (active) | < 0.01 µM (active) | < 0.01 µM (active) | < 0.01 µM | < 0.01 µM (active) | 0.299 µM (active) | < 0.01 µM (active) | 0.0308 µM (active) | < 0.01 µM (active) | < 0.01 µM (active) | 0.2 µM (active) | < 0.01 µM (active) | < 0.0365 µM (active) | 
9 | O=[N+]([O-])c1ccc(C(=S)Nc2ccccc2)o1 | 4.62 µM (inactive) | 11.4 µM (inactive) | 6.55 µM (inactive) | 2.19 µM (inactive) | 2.65 µM (inactive) | 2.48 µM (inactive) | 2.42 µM (inactive) | 6.1 µM (inactive) | 10.9 µM (inactive) | 2.07 µM | 1.26 µM (inactive) | 3.71 µM (inactive) | 2.05 µM (inactive) | 2.43 µM (inactive) | 4.94 µM (inactive) | 2.1 µM (inactive) | 7.67 µM (inactive) | 1.27 µM (inactive) | 3.46 µM (inactive) | 
10 | COc1cc(OC)cc(C(=O)CC(=O)c2cc(OC)cc(OC)c2)c1 | > 100 µM (inactive) | > 100 µM (inactive) | > 100 µM (inactive) | > 100 µM (inactive) | > 100 µM (inactive) |  | > 100 µM (inactive) | > 100 µM (inactive) | > 100 µM (inactive) | 68.9 µM | > 100 µM (inactive) | > 100 µM (inactive) | > 100 µM (inactive) |  | > 100 µM (inactive) | 6.01 µM (inactive) | > 100 µM (inactive) | 95.1 µM (inactive) | > 100 µM (inactive) | > 100 µM (inactive)
11 | CC(=O)OCCN(C1=NCCN1)/[N+](C=c1ccc(=C=[N-])cc1)=C/c1ccc(C#N)cc1 | > 100 µM (inactive) | > 100 µM (inactive) | > 100 µM (inactive) | > 100 µM (inactive) | > 100 µM (inactive) | > 100 µM (inactive) | > 100 µM (inactive) | > 100 µM (inactive) | > 100 µM (inactive) | > 100 µM | > 100 µM (inactive) | > 100 µM (inactive) | > 100 µM (inactive) | > 100 µM (inactive) | > 100 µM (inactive) |  | > 100 µM (inactive) | > 100 µM (inactive) | > 100 µM (inactive) | > 100 µM (inactive)
